Experimental data: patent US8048862B2, “Macrocyclic inhibitors of hepatitis C virus replication” (priority 2008, dated 2011)
Where two headings read alike, the source gives them in different places.

Experiments:
NS3/NS4 complexes = NS3/NS4 complexes (Hepatitis C virus genotype 1a, UniProt P27958); test: NS3/NS4 inhibition activity (IC50); assay type: biochemical; conditions: Table 3, read-out: IC50
How it was run: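 NS3/NS4 complexes were formed and compound inhibitory concentrations determined at ambient temperature (23 °C). The buffer contained 50 mM Tris-HCl pH 7.5, 15% glycerol, 0.6 mM LDAO, 25 μM NS4A peptide and 10 mM DTT.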

hepatitis C replicon = hepatitis C replicon EC50; assay type: cell-based; conditions: Hepatitis C virus
Description: NS3-NS4 inhibition activity can be determined using known assay methods.

[1] = Table 3, hepatitis C replicon, read-out: EC50

NS3/NS4 complexes, sequence (P27958 1027-1657): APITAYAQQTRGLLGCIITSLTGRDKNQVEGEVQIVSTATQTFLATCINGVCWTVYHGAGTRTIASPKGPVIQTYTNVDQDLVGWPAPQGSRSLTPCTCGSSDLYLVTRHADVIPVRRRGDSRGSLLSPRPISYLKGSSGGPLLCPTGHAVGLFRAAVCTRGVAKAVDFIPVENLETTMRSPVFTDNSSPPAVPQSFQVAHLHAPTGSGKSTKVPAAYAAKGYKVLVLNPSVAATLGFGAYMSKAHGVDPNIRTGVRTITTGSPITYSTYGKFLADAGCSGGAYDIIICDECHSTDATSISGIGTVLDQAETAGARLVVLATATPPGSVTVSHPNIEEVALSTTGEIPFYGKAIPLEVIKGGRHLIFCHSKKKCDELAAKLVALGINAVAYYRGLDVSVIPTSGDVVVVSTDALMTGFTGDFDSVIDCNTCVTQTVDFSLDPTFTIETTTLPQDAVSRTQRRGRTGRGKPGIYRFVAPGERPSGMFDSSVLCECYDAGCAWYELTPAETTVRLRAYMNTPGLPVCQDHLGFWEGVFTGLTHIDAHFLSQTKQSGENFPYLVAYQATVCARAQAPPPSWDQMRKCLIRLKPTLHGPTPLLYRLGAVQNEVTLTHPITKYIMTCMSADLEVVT
NS3/NS4 complexes, sequence (P27958 1658-1711): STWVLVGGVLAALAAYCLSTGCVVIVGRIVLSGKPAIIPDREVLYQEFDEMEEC

SMILES | IC50 (NS3/NS4 complexes) [nM] | EC50 (hepatitis C replicon; [1]) [nM] | EC50 (hepatitis C replicon) [nM]
CC(C)(C)OC(=O)N[C@H]1CCCCC/C=C\[C@@H]2C[C@@]2(C(=O)NS(=O)(=O)Cc2ccccc2)NC(=O)[C@@H]2C[C@@H](OC(=O)N3Cc4cccc(F)c4C3)CN2C1=O [Compound 1086] | < 10 | > 100 | 
CO[C@@H]1C[C@H]2C(=O)N[C@]3(C(=O)NS(=O)(=O)C4(C)CC4)C[C@H]3/C=C\CCCCC[C@H](NC(=O)OC(C)(C)C)C(=O)N2C1 [Compound 1091] | > 100 | > 100 | 
CC(C)(C)OC(=O)N[C@H]1CCCCC/C=C\[C@@H]2C[C@@]2(C(=O)NS(=O)(=O)c2ccccc2OCC(N)=O)NC(=O)[C@@H]2C[C@@H](O)CN2C1=O [Compound 1093] | > 100 | > 100 | 
CNC(=O)COc1ccccc1S(=O)(=O)NC(=O)[C@@]12C[C@H]1/C=C\CCCCC[C@H](NC(=O)OC(C)(C)C)C(=O)N1C[C@H](O)C[C@H]1C(=O)N2 [Compound 1094] | > 100 | > 100 | 
CO[C@@H]1C[C@H]2C(=O)N[C@]3(C(=O)NS(=O)(=O)CC(=O)Nc4ccccc4)C[C@H]3/C=C\CCCCC[C@H](NC(=O)OC(C)(C)C)C(=O)N2C1 [Compound 1099] | < 10 |  | < 10
CC1(S(=O)(=O)NC(=O)[C@@]23C[C@H]2/C=C\CCCCC[C@H](Nc2cc(F)cc(C(F)(F)F)c2)C(=O)N2C[C@H](OC(=O)N4Cc5cccc(F)c5C4)C[C@H]2C(=O)N3)CC1 [Compound 1100] | < 10 | < 10 | 
CC1(S(=O)(=O)NC(=O)[C@@]23C[C@H]2/C=C\CCCCC[C@H](Nc2cccc(C(N)=O)c2)C(=O)N2C[C@H](OC(=O)N4Cc5cccc(F)c5C4)C[C@H]2C(=O)N3)CC1 [Compound 1101] | < 10 | 10 to 100 | 
CC1(S(=O)(=O)NC(=O)[C@@]23C[C@H]2/C=C\CCCCC[C@H](Nc2ccccc2)C(=O)N2C[C@H](OC(=O)N4Cc5cccc(F)c5C4)C[C@H]2C(=O)N3)CC1 [Compound 1102] | < 10 | < 10 | 
Cc1cccc(N[C@H]2CCCCC/C=C\[C@@H]3C[C@@]3(C(=O)NS(=O)(=O)C3(C)CC3)NC(=O)[C@@H]3C[C@@H](OC(=O)N4Cc5cccc(F)c5C4)CN3C2=O)c1 [Compound 1103] | < 10 | < 10 | 
COc1cccc(N[C@H]2CCCCC/C=C\[C@@H]3C[C@@]3(C(=O)NS(=O)(=O)C3(C)CC3)NC(=O)[C@@H]3C[C@@H](OC(=O)N4Cc5cccc(F)c5C4)CN3C2=O)c1 [Compound 1104] | < 10 | < 10 | 
Cc1cc(F)cc(N[C@H]2CCCCC/C=C\[C@@H]3C[C@@]3(C(=O)NS(=O)(=O)C3(C)CC3)NC(=O)[C@@H]3C[C@@H](OC(=O)N4Cc5cccc(F)c5C4)CN3C2=O)c1 [Compound 1105] | < 10 | < 10 | 
CN(C)C(=O)c1cccc(N[C@H]2CCCCC/C=C\[C@@H]3C[C@@]3(C(=O)NS(=O)(=O)C3(C)CC3)NC(=O)[C@@H]3C[C@@H](OC(=O)N4Cc5cccc(F)c5C4)CN3C2=O)c1 [Compound 1106] | < 10 | 10 to 100 | 
CC1(S(=O)(=O)NC(=O)[C@@]23C[C@H]2/C=C\CCCCC[C@H](Nc2ccc(F)c(F)c2)C(=O)N2C[C@H](OC(=O)N4Cc5cccc(F)c5C4)C[C@H]2C(=O)N3)CC1 [Compound 1107] | < 10 | 10 to 100 | 
CC1(S(=O)(=O)NC(=O)[C@@]23C[C@H]2/C=C\CCCCC[C@H](Nc2cc(F)c(F)c(F)c2)C(=O)N2C[C@H](OC(=O)N4Cc5cccc(F)c5C4)C[C@H]2C(=O)N3)CC1 [Compound 1108] | < 10 | 10 to 100 | 
CC1(S(=O)(=O)NC(=O)[C@@]23C[C@H]2/C=C\CCCCC[C@H](Nc2ccc(C#N)cc2)C(=O)N2C[C@H](OC(=O)N4Cc5cccc(F)c5C4)C[C@H]2C(=O)N3)CC1 [Compound 1109] | < 10 | 10 to 100 | 
CC(=O)Nc1cccc(N[C@H]2CCCCC/C=C\[C@@H]3C[C@@]3(C(=O)NS(=O)(=O)C3(C)CC3)NC(=O)[C@@H]3C[C@@H](OC(=O)N4Cc5cccc(F)c5C4)CN3C2=O)c1 [Compound 1110] | < 10 | 10 to 100 | 
CC1(S(=O)(=O)NC(=O)[C@@]23C[C@H]2/C=C\CCCCC[C@H](Nc2ccc(F)cc2)C(=O)N2C[C@H](OC(=O)N4Cc5cccc(F)c5C4)C[C@H]2C(=O)N3)CC1 [Compound 1111] | < 10 | 10 to 100 | 
CNC(=O)c1cccc(N[C@H]2CCCCC/C=C\[C@@H]3C[C@@]3(C(=O)NS(=O)(=O)C3(C)CC3)NC(=O)[C@@H]3C[C@@H](OC(=O)N4Cc5cccc(F)c5C4)CN3C2=O)c1 [Compound 1112] | < 10 | > 100 | 

SMILES | IC50 (NS3/NS4 complexes) [nM] | EC50 (hepatitis C replicon; [1]) [nM] | EC50 (hepatitis C replicon) [nM]
CC1(S(=O)(=O)NC(=O)[C@@]23C[C@H]2/C=C\CCCCC[C@H](Nc2cccc(C#N)c2)C(=O)N2C[C@H](OC(=O)N4Cc5cccc(F)c5C4)C[C@H]2C(=O)N3)CC1 [Compound 1113] | < 10 | 10 to 100 | 
Cc1ccccc1N[C@H]1CCCCC/C=C\[C@@H]2C[C@@]2(C(=O)NS(=O)(=O)C2(C)CC2)NC(=O)[C@@H]2C[C@@H](OC(=O)N3Cc4cccc(F)c4C3)CN2C1=O [Compound 1114] | < 10 | 10 to 100 | 
CC1(S(=O)(=O)NC(=O)[C@@]23C[C@H]2/C=C\CCCCC[C@H](Nc2cccc(OC(F)(F)F)c2)C(=O)N2C[C@H](OC(=O)N4Cc5cccc(F)c5C4)C[C@H]2C(=O)N3)CC1 [Compound 1115] | < 10 | < 10 | 
CC1(S(=O)(=O)NC(=O)[C@@]23C[C@H]2/C=C\CCCCC[C@H](Nc2cccc(C(F)(F)F)c2)C(=O)N2C[C@H](OC(=O)N4Cc5cccc(F)c5C4)C[C@H]2C(=O)N3)CC1 [Compound 1116] | < 10 | < 10 | 
CC1(S(=O)(=O)NC(=O)[C@@]23C[C@H]2/C=C\CCCCC[C@H](Nc2cccc(F)c2)C(=O)N2C[C@H](OC(=O)N4Cc5cccc(F)c5C4)C[C@H]2C(=O)N3)CC1 [Compound 1117] | < 10 | 10 to 100 | 
CC1(S(=O)(=O)NC(=O)[C@@]23C[C@H]2/C=C\CCCCC[C@H](Nc2ccc(C(F)(F)F)cc2)C(=O)N2C[C@H](OC(=O)N4Cc5cccc(F)c5C4)C[C@H]2C(=O)N3)CC1 [Compound 1118] | < 10 | > 100 | 
CC1(S(=O)(=O)NC(=O)[C@@]23C[C@H]2/C=C\CCCCC[C@H](Nc2ccc(OC(F)(F)F)cc2)C(=O)N2C[C@H](OC(=O)N4Cc5cccc(F)c5C4)C[C@H]2C(=O)N3)CC1 [Compound 1119] | < 10 | 10 to 100 | 
CC1(S(=O)(=O)NC(=O)[C@@]23C[C@H]2/C=C\CCCCC[C@H](Nc2ccc(F)c(C(F)(F)F)c2)C(=O)N2C[C@H](OC(=O)N4Cc5cccc(F)c5C4)C[C@H]2C(=O)N3)CC1 [Compound 1120] | < 10 | < 10 | 
CC(=O)Nc1ccc(N[C@H]2CCCCC/C=C\[C@@H]3C[C@@]3(C(=O)NS(=O)(=O)C3(C)CC3)NC(=O)[C@@H]3C[C@@H](OC(=O)N4Cc5cccc(F)c5C4)CN3C2=O)cc1 [Compound 1121] | < 10 | 10 to 100 | 
CC1(S(=O)(=O)NC(=O)[C@@]23C[C@H]2/C=C\CCCCC[C@H](Nc2cccc(NS(C)(=O)=O)c2)C(=O)N2C[C@H](OC(=O)N4Cc5cccc(F)c5C4)C[C@H]2C(=O)N3)CC1 [Compound 1122] | < 10 | 10 to 100 | 
CC1(S(=O)(=O)NC(=O)[C@@]23C[C@H]2/C=C\CCCCC[C@H](Nc2ccc(C(F)(F)F)c(F)c2)C(=O)N2C[C@H](OC(=O)N4Cc5cccc(F)c5C4)C[C@H]2C(=O)N3)CC1 [Compound 1123] | < 10 | > 100 | 
CC1(S(=O)(=O)NC(=O)[C@@]23C[C@H]2/C=C\CCCCC[C@H](Nc2ccccc2F)C(=O)N2C[C@H](OC(=O)N4Cc5cccc(F)c5C4)C[C@H]2C(=O)N3)CC1 [Compound 1124] | < 10 | 10 to 100 | 
CC(C)(C)c1cccc(N[C@H]2CCCCC/C=C\[C@@H]3C[C@@]3(C(=O)NS(=O)(=O)C3(C)CC3)NC(=O)[C@@H]3C[C@@H](OC(=O)N4Cc5cccc(F)c5C4)CN3C2=O)c1 [Compound 1126] | < 10 | < 10 | 
CC1(S(=O)(=O)NC(=O)[C@@]23C[C@H]2/C=C\CCCCC[C@H](Nc2nc4ccccc4o2)C(=O)N2C[C@H](OC(=O)N4Cc5cccc(F)c5C4)C[C@H]2C(=O)N3)CC1 [Compound 1127] | < 10 | 10 to 100 | 
O=C1N[C@]2(C(=O)NS(=O)(=O)C3CC3)C[C@H]2/C=C\CCCCC[C@H](Nc2cc(F)cc(C(F)(F)F)c2)C(=O)N2C[C@H](OC(=O)N3Cc4cccc(F)c4C3)C[C@@H]12 [Compound 1128] | < 10 | < 10 | 
CC(C)Cn1c(O[C@@H]2C[C@H]3C(=O)N[C@]4(C(=O)NS(=O)(=O)N(C)C)C[C@H]4/C=C\CCCCC[C@H](NC(=O)OC(C)(C)C)C(=O)N3C2)nc2ccccc21 [Compound 1129] | < 10 | < 10 | 
CN(C)S(=O)(=O)NC(=O)[C@@]12C[C@H]1/C=C\CCCCC[C@H](NC(=O)OC(C)(C)C)C(=O)N1C[C@H](Oc3nc4ccccc4n3C)C[C@H]1C(=O)N2 [Compound 1130] | < 10 | < 10 | 
